According to patent US20080028486A1, “Aluminium Tolerant Barley” (COMMONWEALTH SCIENTIFIC AND INDUSTRIAL RESEARCH ORGANISATION, priority 2004, published 2008):

Assays:
[1] = system: root apices of transgenic barley expressing ALMT1; assay: Malate efflux from excised root apices of transgenic barley expressing ALMT1; type: cell-based, Hordeum vulgare; settings: for activation of malate efflux: 50 μM La or Er in basal solution
Protocol: FIG. 4—Properties of malate efflux from root apices of transgenic barley expressing ALMT1. • (A) Effect of Al concentration on malate efflux (nmoles/h/apex). Excised root apices from ALMT1 line 5 (solid circles) were exposed to Al treatments from 0 to 50 μM in basal solution for 1 h. Error bars show ±standard errors of the means (n=3). The solid squares show efflux from root apices of the control line transformed with the empty vector. • (B) Effects of niflumic acid (nif; 0 to 100 μM), La (50 μM), Er (50 μM) and basal solution (0.2 mM CaCl2 pH 4.3) on malate efflux from root apices of line 5. Excised root apices from line 5 were exposed to the various treatments in basal solution for 1 h. Error bars show ±standard errors of the means (n=3).
Malate efflux from root segments was assayed using a modification of methods described by Ryan et al. (1995a). Unless stated otherwise, 4 root apices 3 mm long were incubated with shaking in 1 ml of 0.2 mM CaCl2 (pH 4.3) for approximately 1 h. The apices were then rinsed with the CaCl2 solution three times and replaced with 1 ml of the same solution (control) or 1 ml of treatment solution (0.2 mM CaCl2 with added treatment at pH 4.3). After an incubation that typically lasted for 1 h, the solution was removed, dried and the residue re-suspended in 200 μl of buffer used for the spectrographic assay of malate (0.25 M glycine, 0.20 M hydrazine and 2.7 mM NAD adjusted to pH 9). A subsample (100 μl) was transferred to a micro-cuvette and the increase in absorbance at 340 nm measured 6 min after addition of 1 μl of malate dehydrogenase (5 mg/ml) was used to calculate the amount of malate by comparison to a standard curve.

[2] = system: control barley plants (wild type and vector only, cv Golden Promise); assay: Al tolerance assay: root elongation in hydroponic culture, control plants; type: in vivo, Hordeum vulgare
Protocol: (§1) Plants in hydroponic culture were assessed for Al tolerance using a hydroponic solution described as follows, supplemented with a range of AlCl3 concentrations. The hydroponic solution was made with distilled or deionised water containing 500 μM KNO3, 500 μM CaCl2, 500 μM NH4NO3, 150 μM MgSO4, 100 μM KH2PO4, 2 μM Fe:EDTA, 11 μM H3BO3, 2 μM MnCl2, 0.35 μM ZnCl2 and 0.2 μM CuCl2 adjusted to pH 5.5. The Al screening solution was the same solution as above except it contained 10 μM KH2PO4 instead of 100 μM, 2 μM FeCl3 instead of Fe:EDTA and was adjusted to pH 4.3 instead of 5.5, and was supplemented with AlCl3 at the stated concentration. The plants were grown using these solutions at a temperature of 18-25° C., usually at 20° C.
(§2) Al tolerance was assessed by determining root elongation of plants grown in hydroponic culture in the continual presence of added Al. The three barley T0 lines that were transformed with ALMT1 and expressing the transgene in the roots were tested in a range of Al levels. […] The ALMT1 gene therefore provided a dramatic enhancement of Al tolerance on the barley plants, to a level that has not been seen previously.

[3] = system: transgenic barley T0 lines 4, 5 and 6 expressing ALMT1; assay: Al tolerance assay: root elongation in hydroponic culture, ALMT1 transgenic barley; type: in vivo, Hordeum vulgare
Protocol: as §1, §2

[4] = system: root apices of transgenic barley expressing ALMT1; assay: K+ efflux from excised root apices of transgenic barley line 5; type: cell-based, Hordeum vulgare; settings: line 5 excised apices, 50 μM Al, mean ±SE, n=4
Protocol: Al-activated malate efflux from root apices of transgenic barley expressing ALMT1 was accompanied by the efflux of K^+. Net K^+ effluxes from excised apices of line 5 were calculated by subtracting corresponding values obtained for the vector only control line resulting in an efflux of 0.4±0.3 nmoles K^+/h/apex in the absence of Al and an efflux of 5.2±1.0 nmoles K^+/h/apex in the presence of 50 μM Al (means ±SE; n=4).

Compound: [Er] [erbium]
- activation of malate efflux ([1]; line 5 root apices, 1 h): capable of eliciting malate efflux, albeit at a lower level than observed for Al

Compound: O=C(O)c1cccnc1Nc1cccc(C(F)(F)F)c1 [niflumic acid]
- effect on malate efflux ([1]; line 5 root apices, niflumic acid 0 to 100 μM, basal solution, 1 h): inhibited

Compound: [Cl][Al]([Cl])[Cl] [AlCl3, aluminium chloride]
- inhibition of root growth ([2]; 2 μM AlCl3): 50%
- inhibition of root growth ([2]; 6 μM AlCl3): 85-90%
- inhibition of root growth ([3]; ALMT1 line 5, hydroponic culture, 20M AlCl3 as printed): did not show significant inhibition of root growth
- inhibition of root growth ([3]; ALMT1 transgenic plants, hydroponic culture, 2, 6 or 12 μM AlCl3): did not exhibit any significant inhibition of root growth
- rate of malate efflux from root apices ([1]; Al-activated efflux, transgenic barley): approx. 1 nmole/apex/h
- added Al concentration up to which malate efflux increases before starting to level off ([1]; line 5 root apices, Al 0 to 50 μM in basal solution (0.2 mM CaCl2 pH 4.3), 1 h): about 25 μM
- net K+ efflux (vector only control values subtracted) [4]: 5.2±1.0 nmoles K+/h/apex

Compound: [La] [Lanthanum]
- activation of malate efflux ([1]; line 5 root apices, 1 h): ineffective in activating malate efflux
